Molecules are shown by their SMILES. Like-named read-outs stand apart in the source and are kept apart here.

For one assay, the system named is 40 other CNS targets. Kind of assay: Off-target binding (NIMH PDSP). To be noted: 10 µM. On the procedure:
Table S1. Off binding data of CW24.
The off-target binding assays were performed at PDSP with their standard protocol (https://pdspdb.unc.edu/pdspWeb/content/UNC-CH%20Protocol%20Book.pdf). In radioligand binding assays, CW24 was tested at a single concentration (10 µM) and in quadruplicate in 96-well plates. The binding assays were carried out in a final of volume of 125 µl per well in appropriate binding buffers. The hot ligand concentration is usually at a concentration close to the Kd (unless otherwise indicated). Total binding and nonspecific binding are determined in the absence and presence of 10 µM of the appropriate reference compound, respectively. In brief, plates are usually incubated at room temperature and in the dark for 90 mins. Reactions are stopped by vacuum filtration onto 0.3% polyethyleneimine (PEI) soaked 96-well filter mats using a 96-well Filtermate harvester, followed by three washes with cold wash buffers (for details, see Tables 2 to 24). Scintillation cocktail is then melted onto the microwave-dried filters on a hot plate and radioactivity is counted in a Microbeta counter.
Receptor % Inhibition 1 % Inhibition 2 % Inhibition 3 % Inhibition 4 Mean±SD %

In another assay the target is T1, Alpha2B (Homo sapiens, UniProt P18089).
T1 construct: NIMH PDSP
T1 sequence (P18089 1-450): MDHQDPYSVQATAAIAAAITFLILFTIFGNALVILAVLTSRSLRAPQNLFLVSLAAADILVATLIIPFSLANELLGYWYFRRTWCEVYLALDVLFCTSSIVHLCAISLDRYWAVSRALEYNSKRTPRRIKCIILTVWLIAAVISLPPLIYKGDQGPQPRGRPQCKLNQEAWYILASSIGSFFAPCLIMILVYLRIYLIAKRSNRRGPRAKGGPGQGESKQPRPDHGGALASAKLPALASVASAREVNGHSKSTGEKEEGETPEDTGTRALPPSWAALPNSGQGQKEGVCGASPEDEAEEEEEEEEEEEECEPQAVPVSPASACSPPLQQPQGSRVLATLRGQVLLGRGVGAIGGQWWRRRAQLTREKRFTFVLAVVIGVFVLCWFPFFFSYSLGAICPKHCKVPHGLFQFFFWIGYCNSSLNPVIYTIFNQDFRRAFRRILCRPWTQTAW
Nature of the assay: PDSP off-target radioligand binding assay. Put shortly:
(§1)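 Read-out is percent inhibition of specific radioligand binding, from scintillation counting of filter-trapped bound ligand. The compound was present at 10 µM in quadruplicate wells, with radioligand close to Kd and 90 min room-temperature incubation in the dark.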

In the next assay the target is T2, M2 (Homo sapiens, UniProt P08172).
T2 sequence (P08172 1-466): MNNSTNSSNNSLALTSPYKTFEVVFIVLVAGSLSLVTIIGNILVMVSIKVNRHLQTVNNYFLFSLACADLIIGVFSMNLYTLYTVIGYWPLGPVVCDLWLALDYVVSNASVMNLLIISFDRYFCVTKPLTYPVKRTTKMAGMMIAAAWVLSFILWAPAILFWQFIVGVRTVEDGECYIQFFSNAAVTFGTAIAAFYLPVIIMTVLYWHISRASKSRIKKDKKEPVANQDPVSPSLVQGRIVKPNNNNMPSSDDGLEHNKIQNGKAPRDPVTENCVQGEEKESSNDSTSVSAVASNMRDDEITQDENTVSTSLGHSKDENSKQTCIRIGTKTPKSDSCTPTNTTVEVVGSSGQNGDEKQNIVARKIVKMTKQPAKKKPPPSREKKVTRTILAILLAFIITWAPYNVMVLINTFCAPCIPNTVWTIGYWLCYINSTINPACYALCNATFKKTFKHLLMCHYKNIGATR
Kind of assay: PDSP off-target radioligand binding assay. In a few lines: as §1

For another assay, the target named is T3, 5-HT2B (Homo sapiens, UniProt P41595).
T3 construct: NIMH PDSP
Kind of assay: PDSP off-target radioligand binding assay. In a few lines: as §1

Assay [1] deals with T4, human recombinant orexin OX1 receptors (Homo sapiens, UniProt O43613).
T4 construct: host or cells: CHO-S cells
T4 sequence (O43613 1-425): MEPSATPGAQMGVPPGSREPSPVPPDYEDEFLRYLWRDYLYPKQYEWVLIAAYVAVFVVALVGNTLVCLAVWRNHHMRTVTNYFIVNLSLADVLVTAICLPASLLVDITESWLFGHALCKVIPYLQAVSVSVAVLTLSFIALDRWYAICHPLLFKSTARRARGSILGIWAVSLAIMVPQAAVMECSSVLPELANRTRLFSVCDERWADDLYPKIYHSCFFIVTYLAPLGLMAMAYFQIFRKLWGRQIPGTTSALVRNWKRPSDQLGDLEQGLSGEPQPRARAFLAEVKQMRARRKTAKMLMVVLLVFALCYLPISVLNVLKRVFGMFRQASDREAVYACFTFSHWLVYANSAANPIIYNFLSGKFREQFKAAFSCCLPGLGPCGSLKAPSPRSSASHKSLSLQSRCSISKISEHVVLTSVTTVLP
Kind of assay: Human Orexin GPCR Binding (Agonist Radioligand) Assay, [125I] Orexin A competition. On the procedure: (§2) Radioligand competition binding assays were performed by Panlabs, Eurofins Pharma Discovery Services. Briefly, human recombinant orexin OX1 receptors expressed in CHO-S cells were used in modified HEPES buffer pH 7.4. […] Orexin A for 60 minutes at 25 °C. […] Orexin A specifically binding. Human recombinant OX2 receptors were used in modified HEPES buffer pH 7.4. […] Orexin A for 180 minutes at 25 °C. […] Orexin A specifically bound.

The target in assay [2] is T5, Human recombinant OX2 receptors (Homo sapiens, UniProt O43614).
T5 sequence (O43614 1-444): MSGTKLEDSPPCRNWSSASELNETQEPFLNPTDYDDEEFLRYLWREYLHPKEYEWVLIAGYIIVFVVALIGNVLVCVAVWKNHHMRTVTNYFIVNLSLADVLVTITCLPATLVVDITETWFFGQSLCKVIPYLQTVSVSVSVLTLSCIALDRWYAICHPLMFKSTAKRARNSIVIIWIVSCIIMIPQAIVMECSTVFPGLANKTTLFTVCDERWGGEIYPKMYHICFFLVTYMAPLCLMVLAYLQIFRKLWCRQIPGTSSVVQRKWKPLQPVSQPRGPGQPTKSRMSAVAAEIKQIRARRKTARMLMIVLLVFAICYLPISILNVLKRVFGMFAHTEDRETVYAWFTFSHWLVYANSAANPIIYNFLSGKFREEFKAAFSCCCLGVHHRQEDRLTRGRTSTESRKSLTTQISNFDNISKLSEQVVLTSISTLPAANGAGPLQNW
The description is as above. How it is done:
as §2

[3] abbreviates: quadruplicate, read-out: Mean±SD % inhibition.
Setting [4] is: replicate 1, read-out: % Inhibition 1.
The mark [5] stands for this setting: replicate 2, read-out: % Inhibition 2.
[6] abbreviates: replicate 3, read-out: % Inhibition 3.
The mark [7] stands for this setting: replicate 4, read-out: % Inhibition 4.

T3 sequence (P41595 whole entry, species assumed): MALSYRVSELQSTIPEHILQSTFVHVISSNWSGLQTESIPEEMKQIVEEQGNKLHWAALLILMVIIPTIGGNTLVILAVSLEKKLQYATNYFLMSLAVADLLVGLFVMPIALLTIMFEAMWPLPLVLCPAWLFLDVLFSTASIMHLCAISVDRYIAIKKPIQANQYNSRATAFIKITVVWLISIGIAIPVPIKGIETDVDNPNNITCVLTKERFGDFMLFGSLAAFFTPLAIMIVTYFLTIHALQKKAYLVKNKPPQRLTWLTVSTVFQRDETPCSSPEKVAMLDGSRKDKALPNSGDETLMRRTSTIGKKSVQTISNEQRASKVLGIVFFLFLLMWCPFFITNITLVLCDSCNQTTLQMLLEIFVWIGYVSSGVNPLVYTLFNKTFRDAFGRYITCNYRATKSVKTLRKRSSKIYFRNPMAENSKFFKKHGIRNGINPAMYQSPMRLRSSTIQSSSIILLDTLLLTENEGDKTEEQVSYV

Consider `COc1ccnc(N2CCC3(CCCN(Cc4cn(C)c5ccccc45)C3=O)CC2)n1` [CW24], for which the “selectivity for OXRs compared to 40 other CNS targets” value in the assay with 40 other CNS targets was “selective”. In addition, the inhibition at 10 µM was -9.5 ± 13.4% on Alpha2B (setting [3]); -8.15% at Alpha2B (setting [4]); -23.6% on Alpha2B (setting [5]); -14.5% on Alpha2B (setting [6]); 8.29% on Alpha2B (setting [7]); -0.08 ± 16.7% on M2 (setting [3]). In addition, the inhibition at 10 µM is -1.12% on M2 (setting [4]); -4.61% on M2 (setting [5]); -17.4% on M2 (setting [6]); 22.8% at M2 (setting [7]); 21.6 ± 7.7% at 5-HT2B (setting [3]); 45.9% at 5-HT2B (setting [4]). Moreover, the results for the inhibition at 10 µM on 5-HT2B (setting [5]), at 5-HT2B (setting [6]) and at 5-HT2B (setting [7]) were 11.3%, 11.2% and 17.8%, respectively. In addition, the “increase in potency compared to IPSU binding (OX1R)” value in assay [1] (CW24 vs IPSU) was ~ 5 fold. The 50% inhibitory concentration (IC50) turned out to be 253 nM in assay [1] (competition binding against [^125I] orexin, read-out: IC50 OX1R) and 1410 nM in assay [2] (competition binding against [^125I] orexin, read-out: IC50 OX2R). Moreover, the “increase in potency compared to IPSU binding (OX2R)” value in assay [2] (CW24 vs IPSU) is given as ~ 2 fold.

For orientation: inhibition means the change of the read-out against control, counted positive when it falls. The term IC50 denotes the concentration that inhibits the measured activity by half.

For the origin of these results see paper PMC7179119, “A New Positron Emission Tomography Probe for Orexin Receptors Neuroimaging” (Molecules, 2020).
